# Source: US7527021B2, “Non-invasive drug self-administration system for animals” (University of Virginia Patent Foundation, priority 2003, dated 2009)
# Assays:
# [1] = Cocaine levels in the brains of self-administering animals (ELISA); details: self-administered aerosol
# Description: Animals were allowed access to the self administration system of the present invention and the number of nosepokes was recorded using two different concentrations of cocaine (1.8 or 21 mg/kg/spray). Animals were sacrificed within 20 min (animals 3,4) or 1 hr (animals 1,2) of last nosepoke, and all nosepokes occurred within less than 1 hr.
# [2] = 20/mg/kg cocaine via IP injection; cited from earlier work
# [3] = test system: mice; experiment: Intranasal aerosol cocaine self-administration, nose-poke frequency (FIG. 4); details: intra-nasal aerosol; inverted-U dose response, less self-administration at higher and lower concentrations; 4 h sessions
smiles,measurement,setting,value
COC(=O)[C@H]1[C@@H](OC(=O)c2ccccc2)C[C@@H]2CC[C@H]1N2C [cocaine],Cocaine conc in brain,"[1]; animal 1, 6 pokes × 1.8 mg/kg/spray, sacrificed within 1 hr of last nosepoke",0.08 (mg/kg)
same,Cocaine conc in brain,"[1]; animal 2, 4 pokes × 1.8 mg/kg/spray, sacrificed within 1 hr of last nosepoke",0.28 mg/kg
same,Cocaine conc in brain,"[1]; animal 3, 1 poke × 21.0 mg/kg/spray, sacrificed within 20 min of last nosepoke",1.03 mg/kg
same,Cocaine conc in brain,"[1]; animal 4, 2 pokes × 21.0 mg/kg/spray, sacrificed within 20 min of last nosepoke",2.96 mg/kg
same,cocaine in the brain,[2],0.96 mg/kg
same,cocaine concentration at which animals nose-poke most frequently,[3],~0.9 mg/kg/infusion
